The values below come from patent publication US6784137B2, “6-aryl-4-aminopicolinates and their use as herbicides” (Dow AgroSciences LLC, priority 2001, dated 2004).

SMILES strings stand for the structures.

The test system of one data set is Barnyardgrass (Echinochloa crus-galli). In words: Postemergence herbicidal activity, greenhouse spray. In kind it is in vivo. As to conditions: Echinochloa crus-galli, post-emergence, 336 h, Table 1; rate 250 ppm; visual score after 2 weeks; read-out: Post-emergent % control ECHCG. The method in brief: (§1)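 Plants grown 7-21 days in a greenhouse (~15 hr photoperiod, about 23-29° C day/22-28° C night) and treated at the first or second true leaf stage. Compounds in acetone:DMSO 97:3 were diluted into an aqueous acetone/isopropyl alcohol/crop oil/Triton X-155 carrier and sprayed to thorough coverage. Controls received carrier alone.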
Consider `COC(=O)c1nc(-c2ccc(Cl)cc2Cl)c(F)c(N)c1Cl` [Compound 88, Methyl 4-amino-3-chloro-5-fluoro-6-(2,4-dichlorophenyl)pyridine-2-carboxylate], for which the pest or weed control at 250 ppm was 85%.

Turning to `Cc1ccc(-c2nc(C(=O)O)c(Cl)c(N)c2F)cc1` [Compound 163, 4-Amino-3-chloro-5-fluoro-6-(4-methylphenyl)pyridine-2-carboxylic acid], the pest or weed control at 250 ppm was 70%.

Staying with this data set, now noted: Echinochloa crus-galli, post-emergence, 336 h, Table 2; rate 125 ppm; visual score after 2 weeks; read-out: Post-emergent % control ECHCG.
With `COC(=O)c1nc(-c2ccc(Cl)cc2Cl)c(F)c(N)c1Cl` [Compound 88, Methyl 4-amino-3-chloro-5-fluoro-6-(2,4-dichlorophenyl)pyridine-2-carboxylate], the pest or weed control at 125 ppm was determined as 85%.

In the case of `Cc1ccc(-c2nc(C(=O)O)c(Cl)c(N)c2F)cc1` [Compound 163, 4-Amino-3-chloro-5-fluoro-6-(4-methylphenyl)pyridine-2-carboxylic acid], the pest or weed control at 125 ppm stood at 70%.

In a further data set the test system is Cocklebur (Xanthium strumarium). The data set is described as above. In kind it is in vivo. As to conditions: Xanthium strumarium, post-emergence, 336 h; Table 1; rate 250 ppm; visual score after 2 weeks; read-out: Post-emergent % control XANST. The method in brief:
as §1
On to `COC(=O)c1nc(-c2ccc(Cl)cc2Cl)c(F)c(N)c1Cl` [Compound 88, Methyl 4-amino-3-chloro-5-fluoro-6-(2,4-dichlorophenyl)pyridine-2-carboxylate], for which the pest or weed control at 250 ppm was 100%.

Turning to `Cc1ccc(-c2nc(C(=O)O)c(Cl)c(N)c2F)cc1` [Compound 163, 4-Amino-3-chloro-5-fluoro-6-(4-methylphenyl)pyridine-2-carboxylic acid], the pest or weed control at 250 ppm turned out to be 100%.

The data set is the same for the next values; noted with them: Xanthium strumarium, post-emergence, 336 h; Table 2; rate 125 ppm; visual score after 2 weeks; read-out: Post-emergent % control XANST.
Take `COC(=O)c1nc(-c2ccc(Cl)cc2Cl)c(F)c(N)c1Cl` [Compound 88, Methyl 4-amino-3-chloro-5-fluoro-6-(2,4-dichlorophenyl)pyridine-2-carboxylate]: the pest or weed control at 125 ppm was 100%.

Consider `Cc1ccc(-c2nc(C(=O)O)c(Cl)c(N)c2F)cc1` [Compound 163, 4-Amino-3-chloro-5-fluoro-6-(4-methylphenyl)pyridine-2-carboxylic acid], for which the pest or weed control at 125 ppm was found to be 100%.

Another data set has as its system Lambsquarter (Chenopodium album). Described as above. Format: in vivo. As to conditions: Chenopodium album, post-emergence, 336 h; Table 1; rate 250 ppm; visual score after 2 weeks; read-out: Post-emergent % control CHEAL. A digest of the protocol:
as §1
With `COC(=O)c1nc(-c2ccc(Cl)cc2Cl)c(F)c(N)c1Cl` [Compound 88, Methyl 4-amino-3-chloro-5-fluoro-6-(2,4-dichlorophenyl)pyridine-2-carboxylate], the pest or weed control at 250 ppm was 100%.

For the compound `Cc1ccc(-c2nc(C(=O)O)c(Cl)c(N)c2F)cc1` [Compound 163, 4-Amino-3-chloro-5-fluoro-6-(4-methylphenyl)pyridine-2-carboxylic acid], the pest or weed control at 250 ppm came out at 95%.

Still in this data set, the particulars now being: Chenopodium album, post-emergence, 336 h; Table 2; rate 125 ppm; visual score after 2 weeks; read-out: Post-emergent % control CHEAL.
Take `COC(=O)c1nc(-c2ccc(Cl)cc2Cl)c(F)c(N)c1Cl` [Compound 88, Methyl 4-amino-3-chloro-5-fluoro-6-(2,4-dichlorophenyl)pyridine-2-carboxylate]: the pest or weed control at 125 ppm turned out to be 100%.

For `Cc1ccc(-c2nc(C(=O)O)c(Cl)c(N)c2F)cc1` [Compound 163, 4-Amino-3-chloro-5-fluoro-6-(4-methylphenyl)pyridine-2-carboxylic acid], the pest or weed control at 125 ppm was 90%.

The next data set deals with Yellow nutsedge (Cyperus esculentus). The data set is described as above. Particulars: Cyperus, post-emergence, 336 h, Table 1; rate 250 ppm; visual score after 2 weeks; read-out: Post-emergent % control CYPES. In kind it is in vivo. The method in brief: as §1
`COC(=O)c1nc(-c2ccc(Cl)cc2Cl)c(F)c(N)c1Cl` [Compound 88, Methyl 4-amino-3-chloro-5-fluoro-6-(2,4-dichlorophenyl)pyridine-2-carboxylate]: the pest or weed control at 250 ppm was 95%.

As for `Cc1ccc(-c2nc(C(=O)O)c(Cl)c(N)c2F)cc1` [Compound 163, 4-Amino-3-chloro-5-fluoro-6-(4-methylphenyl)pyridine-2-carboxylic acid], the pest or weed control at 250 ppm stood at 70%.

Staying with this data set, now noted: Cyperus, post-emergence, 336 h, Table 2; rate 125 ppm; visual score after 2 weeks; read-out: Post-emergent % control CYPES.
As for `COC(=O)c1nc(-c2ccc(Cl)cc2Cl)c(F)c(N)c1Cl` [Compound 88, Methyl 4-amino-3-chloro-5-fluoro-6-(2,4-dichlorophenyl)pyridine-2-carboxylate], the pest or weed control at 125 ppm was determined as 95%.

On to `Cc1ccc(-c2nc(C(=O)O)c(Cl)c(N)c2F)cc1` [Compound 163, 4-Amino-3-chloro-5-fluoro-6-(4-methylphenyl)pyridine-2-carboxylic acid], for which the pest or weed control at 125 ppm stood at 70%.

The next data set deals with Crabgrass(large) (Digitaria sanguinalis). In words: Preemergence herbicidal activity, soil spray. Format: in vivo. As to conditions: Digitaria sanguinalis, pre-emergence, 504 h; Table 5; rate 140 ppm; visual score after 3 weeks; read-out: Pre-emergent % control DIGSA. From the text:
(§2) Seeds of the desired test plant species were planted in a soil matrix prepared by mixing a loam soil (43 percent silt, 19 percent clay, and 38 percent sand, with a pH of about 8.1 and an organic matter content of about 1.5 percent) and sand in a 70 to 30 ratio. The soil matrix was contained in plastic pots with a surface area of 113 square centimeters. When required to ensure good germination and healthy plants, a fungicide treatment and/or other chemical or physical treatment was applied. A weighed amount, determined by the highest rate to be tested, of each test compound was placed in a 20 mL glass vial and was dissolved in 4 mL of a 97:3 v/v (volume/volume) mixture of acetone and dimethyl sulfoxide to obtain concentrated stock solutions. […] The stock solutions obtained were diluted with a 99.9:0.1 mixture of water and Tween® 155 surfactant to obtain application solutions of known concentration. The solutions containing the highest concentration to be tested were prepared by diluting 2 mL aliquots of the stock solution with 15 mL of the mixture and lower concentrations were prepared by serial dilution of the stock solution. A 2.5 mL aliquot of each solution of known concentration was sprayed evenly onto the soil surface (113 sq. cm) of each seeded pot using a Cornwall 5.0 mL glass syringe fitted with a TeeJet TN-3 hollow cone nozzle to obtain thorough coverage of the soil in each pot. Control pots were sprayed in the same manner with the aqueous mixture. The treated pots and control pots were placed in a greenhouse maintained with an approximate 15 hr photoperiod and temperatures of about 23-29° C. during the day and 22-28° C. during the night. Nutrients and water were added on a regular basis and supplemental lighting was provided with overhead metal halide 1000-Watt lamps as necessary. The water was added by top-irrigation.
As for `Cc1ccc(-c2nc(C(=O)O)c(Cl)c(N)c2F)cc1` [Compound 163, 4-Amino-3-chloro-5-fluoro-6-(4-methylphenyl)pyridine-2-carboxylic acid], the pest or weed control at 140 ppm turned out to be 100%.

The data set is the same for the next values; noted with them: Digitaria sanguinalis, pre-emergence, 504 h; Table 5; rate 560 ppm; visual score after 3 weeks; read-out: Pre-emergent % control DIGSA.
`COC(=O)c1nc(-c2ccc(Cl)cc2Cl)c(F)c(N)c1Cl` [Compound 88, Methyl 4-amino-3-chloro-5-fluoro-6-(2,4-dichlorophenyl)pyridine-2-carboxylate]: the pest or weed control at 560 ppm amounted to 70%.

For another data set, the system named is Giant Foxtail (Setaria faberi). The data set is described as follows: Preemergence herbicidal activity, soil spray. In kind it is in vivo. Particulars: Setaria faberi, pre-emergence, 504 h, Table 5; rate 140 ppm; visual score after 3 weeks; read-out: Pre-emergent % control SETFA.
Description: as §2
With `Cc1ccc(-c2nc(C(=O)O)c(Cl)c(N)c2F)cc1` [Compound 163, 4-Amino-3-chloro-5-fluoro-6-(4-methylphenyl)pyridine-2-carboxylic acid], the pest or weed control at 140 ppm stood at 95%.

The same data set, now with this note: Setaria faberi, pre-emergence, 504 h, Table 5; rate 560 ppm; visual score after 3 weeks; read-out: Pre-emergent % control SETFA.
Regarding `COC(=O)c1nc(-c2ccc(Cl)cc2Cl)c(F)c(N)c1Cl` [Compound 88, Methyl 4-amino-3-chloro-5-fluoro-6-(2,4-dichlorophenyl)pyridine-2-carboxylate], the pest or weed control at 560 ppm is 70%.

A further data set concerns Lambsquarter (Chenopodium album). In words: Preemergence herbicidal activity, soil spray. Format: in vivo. Particulars: Chenopodium album, pre-emergence, 504 h; Table 5; rate 140 ppm; visual score after 3 weeks; read-out: Pre-emergent % control CHEAL.
Description: as §2
For `Cc1ccc(-c2nc(C(=O)O)c(Cl)c(N)c2F)cc1` [Compound 163, 4-Amino-3-chloro-5-fluoro-6-(4-methylphenyl)pyridine-2-carboxylic acid], the pest or weed control at 140 ppm came out at 100%.

The data set is the same for the next values; noted with them: Chenopodium album, pre-emergence, 504 h; Table 5; rate 560 ppm; visual score after 3 weeks, 100 complete kill or no germination; read-out: Pre-emergent % control CHEAL.
As to `COC(=O)c1nc(-c2ccc(Cl)cc2Cl)c(F)c(N)c1Cl` [Compound 88, Methyl 4-amino-3-chloro-5-fluoro-6-(2,4-dichlorophenyl)pyridine-2-carboxylate], the pest or weed control at 560 ppm was determined as 100%.

The test system of the next data set is Pigweed (redroot) (Amaranthus retroflexus). In words: Preemergence herbicidal activity, soil spray. In kind it is in vivo. As to conditions: Amaranthus retroflexus, pre-emergence, 504 h; Table 5; rate 140 ppm; visual score after 3 weeks; read-out: Pre-emergent % control AMARE.
Description: as §2
With `Cc1ccc(-c2nc(C(=O)O)c(Cl)c(N)c2F)cc1` [Compound 163, 4-Amino-3-chloro-5-fluoro-6-(4-methylphenyl)pyridine-2-carboxylic acid], the pest or weed control at 140 ppm was 98%.

The same data set, now with this note: Amaranthus retroflexus, pre-emergence, 504 h; Table 5; rate 560 ppm; visual score after 3 weeks; read-out: Pre-emergent % control AMARE.
Regarding `COC(=O)c1nc(-c2ccc(Cl)cc2Cl)c(F)c(N)c1Cl` [Compound 88, Methyl 4-amino-3-chloro-5-fluoro-6-(2,4-dichlorophenyl)pyridine-2-carboxylate], the pest or weed control at 560 ppm was 100%.

Tested on in a further data set: not given
Experiment: not given
Settings: not given
A word on the melting point: it is the temperature, or range, at which the solid turns liquid. On to `COC(=O)c1nc(-c2ccc(Cl)cc2Cl)c(F)c(N)c1Cl` [Compound 88, Methyl 4-amino-3-chloro-5-fluoro-6-(2,4-dichlorophenyl)pyridine-2-carboxylate], for which the melting point stood at 122 °C.

In the case of `Cc1ccc(-c2nc(C(=O)O)c(Cl)c(N)c2F)cc1` [Compound 163, 4-Amino-3-chloro-5-fluoro-6-(4-methylphenyl)pyridine-2-carboxylic acid], the melting point is 145 to 148 °C (dec.).
